Values after ≈ are worked out from the molar mass of the structure shown.
Experiments:
Assay type in all cases: functional
Bacillus subtilis [1] = assay: Antibacterial activity against Bacillus subtilis by microdilution method
Pseudomonas fluorescens [2] = assay: Antibacterial activity against Pseudomonas fluorescens by microdilution method
Erwinia amylovora [3] = assay: Antibacterial activity against Erwinia amylovora by microdilution method
[4] = system: Pectobacterium carotovorum; assay: Antibacterial activity against Erwinia carotovora by microdilution method
Xanthomonas campestris [5] = assay: Antibacterial activity against Xanthomonas campestris by microdilution method
Bacillus subtilis [6] = assay: Bactericidal activity against Bacillus subtilis
Pseudomonas fluorescens [7] = assay: Bactericidal activity against Pseudomonas fluorescens
Erwinia amylovora [8] = assay: Bactericidal activity against Erwinia amylovora
[9] = system: Pectobacterium carotovorum; assay: Bactericidal activity against Erwinia carotovora
Xanthomonas campestris [10] = assay: Bactericidal activity against Xanthomonas campestris
Aspergillus fumigatus [11] = assay: Antifungal activity Aspergillus fumigatus by microdilution method
Aspergillus versicolor [12] = assay: Antifungal activity Aspergillus versicolor by microdilution method
Aspergillus ochraceus [13] = assay: Antifungal activity Aspergillus ochraceus by microdilution method
Aspergillus niger [14] = assay: Antifungal activity Aspergillus niger by microdilution method
Trichoderma viride [15] = assay: Antifungal activity Trichoderma viride by microdilution method
Talaromyces funiculosus [16] = assay: Antifungal activity Penicillium funiculosum by microdilution method
Penicillium ochrochloron [17] = assay: Antifungal activity Penicillium ochrochloron by microdilution method
Penicillium cyclopium [18] = assay: Antifungal activity Penicillium verrucosum var. cyclopium by microdilution method
Aspergillus fumigatus [19] = assay: Fungicidal activity Aspergillus fumigatus
Aspergillus versicolor [20] = assay: Fungicidal activity Aspergillus versicolor
Aspergillus ochraceus [21] = assay: Fungicidal activity Aspergillus ochraceus
Aspergillus niger [22] = assay: Fungicidal activity Aspergillus niger
Trichoderma viride [23] = assay: Fungicidal activity Trichoderma viride
Talaromyces funiculosus [24] = assay: Fungicidal activity Penicillium funiculosum
Penicillium ochrochloron [25] = assay: Fungicidal activity Penicillium ochrochloron
Penicillium cyclopium [26] = assay: Fungicidal activity Penicillium verrucosum var. cyclopium

| Compound | MIC (Bacillus subtilis [1]) [µM] | MIC (Pseudomonas fluorescens [2]) [µM] | MIC (Erwinia amylovora [3]) [µM] | MIC [4] [µM] | MIC (Xanthomonas campestris [5]) [µM] | MIC (Aspergillus fumigatus [11]) [µM] | MIC (Aspergillus versicolor [12]) [µM] | MIC (Aspergillus ochraceus [13]) [µM] | MIC (Aspergillus niger [14]) [µM] | MIC (Trichoderma viride [15]) [µM] | MIC (Talaromyces funiculosus [16]) [µM] | MIC (Penicillium ochrochloron [17]) [µM] | MIC (Penicillium cyclopium [18]) [µM] | MBC (Bacillus subtilis [6]) [µM] | MBC (Pseudomonas fluorescens [7]) [µM] | MBC (Erwinia amylovora [8]) [µM] | MBC [9] [µM] | MBC (Xanthomonas campestris [10]) [µM] | MFC (Aspergillus fumigatus [19]) [µM] | MFC (Aspergillus versicolor [20]) [µM] | further results |
| --- | --- | --- | --- | --- | --- | --- | --- | --- | --- | --- | --- | --- | --- | --- | --- | --- | --- | --- | --- | --- | --- |
| O=C(/C(=C/c1ccccc1)n1cncn1)c1ccc(Cl)cc1Cl | 2.9 (≈ 0.998 µg/mL) | 2.9 (≈ 0.998 µg/mL) | 2.9 (≈ 0.998 µg/mL) | 2.9 (≈ 0.998 µg/mL) | 2.9 (≈ 0.998 µg/mL) | 160 (≈ 55.1 µg/mL) | 80 (≈ 27.5 µg/mL) | 100 (≈ 34.4 µg/mL) | 160 (≈ 55.1 µg/mL) | 50 (≈ 17.2 µg/mL) | 220 (≈ 75.7 µg/mL) | 160 (≈ 55.1 µg/mL) | 220 (≈ 75.7 µg/mL) | 5.8 (≈ 2 µg/mL) | 2.9 (≈ 0.998 µg/mL) | 2.9 (≈ 0.998 µg/mL) | 5.8 (≈ 2 µg/mL) | 2.9 (≈ 0.998 µg/mL) | 220 (≈ 75.7 µg/mL) | 220 (≈ 75.7 µg/mL) | MFC (Aspergillus ochraceus [21]): 220 µM (≈ 75.7 µg/mL); MFC (Aspergillus niger [22]): 220 µM (≈ 75.7 µg/mL); MFC (Trichoderma viride [23]): 100 µM (≈ 34.4 µg/mL); MFC (Talaromyces funiculosus [24]): 440 µM (≈ 151 µg/mL); MFC (Penicillium ochrochloron [25]): 440 µM (≈ 151 µg/mL); MFC (Penicillium cyclopium [26]): 440 µM (≈ 151 µg/mL) |
| O=C(/C(=C/c1cc([N+](=O)[O-])ccc1O)n1cncn1)c1ccc(Cl)cc1 | 2.7 (≈ 1 µg/mL) | 1.3 (≈ 0.482 µg/mL) | 2.7 (≈ 1 µg/mL) | 2.7 (≈ 1 µg/mL) | 1.3 (≈ 0.482 µg/mL) | 200 (≈ 74.2 µg/mL) | 100 (≈ 37.1 µg/mL) | 100 (≈ 37.1 µg/mL) | 150 (≈ 55.6 µg/mL) | 100 (≈ 37.1 µg/mL) | 150 (≈ 55.6 µg/mL) | 100 (≈ 37.1 µg/mL) | 200 (≈ 74.2 µg/mL) | 2.7 (≈ 1 µg/mL) | 2.7 (≈ 1 µg/mL) | 2.7 (≈ 1 µg/mL) | 2.7 (≈ 1 µg/mL) | 2.7 (≈ 1 µg/mL) | 410 (≈ 152 µg/mL) | 200 (≈ 74.2 µg/mL) | MFC (Aspergillus ochraceus [21]): 200 µM (≈ 74.2 µg/mL); MFC (Aspergillus niger [22]): 200 µM (≈ 74.2 µg/mL); MFC (Trichoderma viride [23]): 200 µM (≈ 74.2 µg/mL); MFC (Talaromyces funiculosus [24]): 200 µM (≈ 74.2 µg/mL); MFC (Penicillium ochrochloron [25]): 200 µM (≈ 74.2 µg/mL); MFC (Penicillium cyclopium [26]): 410 µM (≈ 152 µg/mL) |
| CN(C)c1ccc(/C=C(/C(=O)c2ccc(-c3ccccc3)cc2)n2cncn2)cc1 | 2.5 (≈ 0.986 µg/mL) | 2.5 (≈ 0.986 µg/mL) | 2.5 (≈ 0.986 µg/mL) | 2.5 (≈ 0.986 µg/mL) | 5.1 (≈ 2.01 µg/mL) | 250 (≈ 98.6 µg/mL) | 250 (≈ 98.6 µg/mL) | 130 (≈ 51.3 µg/mL) | 250 (≈ 98.6 µg/mL) | 90 (≈ 35.5 µg/mL) | 180 (≈ 71 µg/mL) | 130 (≈ 51.3 µg/mL) | 250 (≈ 98.6 µg/mL) | 5.1 (≈ 2.01 µg/mL) | 2.5 (≈ 0.986 µg/mL) | 2.5 (≈ 0.986 µg/mL) | 5.1 (≈ 2.01 µg/mL) | 5.1 (≈ 2.01 µg/mL) | 510 (≈ 201 µg/mL) | 510 (≈ 201 µg/mL) | MFC (Aspergillus ochraceus [21]): 250 µM (≈ 98.6 µg/mL); MFC (Aspergillus niger [22]): 510 µM (≈ 201 µg/mL); MFC (Trichoderma viride [23]): 130 µM (≈ 51.3 µg/mL); MFC (Talaromyces funiculosus [24]): 250 µM (≈ 98.6 µg/mL); MFC (Penicillium ochrochloron [25]): 250 µM (≈ 98.6 µg/mL); MFC (Penicillium cyclopium [26]): 510 µM (≈ 201 µg/mL) |
| O=C(/C(=C/c1cccc(O)c1)n1cncn1)c1ccccc1 | 6.9 (≈ 2.01 µg/mL) | 1.7 (≈ 0.495 µg/mL) | 1.7 (≈ 0.495 µg/mL) | 1.7 (≈ 0.495 µg/mL) | 1.7 (≈ 0.495 µg/mL) | 380 (≈ 111 µg/mL) | 260 (≈ 75.7 µg/mL) | 190 (≈ 55.3 µg/mL) | 520 (≈ 151 µg/mL) | 190 (≈ 55.3 µg/mL) | 260 (≈ 75.7 µg/mL) | 260 (≈ 75.7 µg/mL) | 380 (≈ 111 µg/mL) | 6.9 (≈ 2.01 µg/mL) | 1.7 (≈ 0.495 µg/mL) | 3.4 (≈ 0.99 µg/mL) | 1.7 (≈ 0.495 µg/mL) | 3.4 (≈ 0.99 µg/mL) | 520 (≈ 151 µg/mL) | 520 (≈ 151 µg/mL) | MFC (Aspergillus ochraceus [21]): 520 µM (≈ 151 µg/mL); MFC (Aspergillus niger [22]): 100 µM (≈ 29.1 µg/mL); MFC (Trichoderma viride [23]): 260 µM (≈ 75.7 µg/mL); MFC (Talaromyces funiculosus [24]): 520 µM (≈ 151 µg/mL); MFC (Penicillium ochrochloron [25]): 520 µM (≈ 151 µg/mL); MFC (Penicillium cyclopium [26]): 520 µM (≈ 151 µg/mL) |

The next compounds have a lower MIC (Bacillus subtilis [1]) than those just listed; values first:

| MIC (Bacillus subtilis [1]) [µM] | MIC (Pseudomonas fluorescens [2]) [µM] | MIC (Erwinia amylovora [3]) [µM] | MIC [4] [µM] | MIC (Xanthomonas campestris [5]) [µM] | MIC (Aspergillus fumigatus [11]) [µM] | MIC (Aspergillus versicolor [12]) [µM] | MIC (Aspergillus ochraceus [13]) [µM] | MIC (Aspergillus niger [14]) [µM] | MIC (Trichoderma viride [15]) [µM] | MIC (Talaromyces funiculosus [16]) [µM] | MIC (Penicillium ochrochloron [17]) [µM] | MIC (Penicillium cyclopium [18]) [µM] | Compound | MBC (Bacillus subtilis [6]) [µM] | MBC (Pseudomonas fluorescens [7]) [µM] | MBC (Erwinia amylovora [8]) [µM] | MBC [9] [µM] | MBC (Xanthomonas campestris [10]) [µM] | MFC (Aspergillus fumigatus [19]) [µM] | MFC (Aspergillus versicolor [20]) [µM] | further results |
| --- | --- | --- | --- | --- | --- | --- | --- | --- | --- | --- | --- | --- | --- | --- | --- | --- | --- | --- | --- | --- | --- |
| 1.3 (≈ 0.461 µg/mL) | 0.6 (≈ 0.213 µg/mL) | 1.3 (≈ 0.461 µg/mL) | 1.3 (≈ 0.461 µg/mL) | 1.3 (≈ 0.461 µg/mL) | 100 (≈ 35.5 µg/mL) | 100 (≈ 35.5 µg/mL) | 70 (≈ 24.8 µg/mL) | 140 (≈ 49.7 µg/mL) | 70 (≈ 24.8 µg/mL) | 140 (≈ 49.7 µg/mL) | 100 (≈ 35.5 µg/mL) | 140 (≈ 49.7 µg/mL) | O=C(/C(=C/c1ccc([N+](=O)[O-])cc1)n1cncn1)c1ccc(Cl)cc1 | 1.3 (≈ 0.461 µg/mL) | 1.3 (≈ 0.461 µg/mL) | 1.3 (≈ 0.461 µg/mL) | 1.3 (≈ 0.461 µg/mL) | 1.3 (≈ 0.461 µg/mL) | 190 (≈ 67.4 µg/mL) | 190 (≈ 67.4 µg/mL) | MFC (Aspergillus ochraceus [21]): 100 µM (≈ 35.5 µg/mL); MFC (Aspergillus niger [22]): 190 µM (≈ 67.4 µg/mL); MFC (Trichoderma viride [23]): 100 µM (≈ 35.5 µg/mL); MFC (Talaromyces funiculosus [24]): 190 µM (≈ 67.4 µg/mL); MFC (Penicillium ochrochloron [25]): 190 µM (≈ 67.4 µg/mL); MFC (Penicillium cyclopium [26]): 190 µM (≈ 67.4 µg/mL) |
| 0.8 (≈ 0.24 µg/mL) | 3.3 (≈ 0.991 µg/mL) | 0.4 (≈ 0.12 µg/mL) | 0.4 (≈ 0.12 µg/mL) | 0.8 (≈ 0.24 µg/mL) | 20 (≈ 6.01 µg/mL) | 40 (≈ 12 µg/mL) | 20 (≈ 6.01 µg/mL) | 20 (≈ 6.01 µg/mL) | 30 (≈ 9.01 µg/mL) | 40 (≈ 12 µg/mL) | 30 (≈ 9.01 µg/mL) | 40 (≈ 12 µg/mL) | CC(C)CC(=O)/C(=C/c1ccc([N+](=O)[O-])cc1)n1cncn1 | 0.8 (≈ 0.24 µg/mL) | 3.3 (≈ 0.991 µg/mL) | 0.8 (≈ 0.24 µg/mL) | 0.8 (≈ 0.24 µg/mL) | 0.8 (≈ 0.24 µg/mL) | 30 (≈ 9.01 µg/mL) | 60 (≈ 18 µg/mL) | MFC (Aspergillus ochraceus [21]): 30 µM (≈ 9.01 µg/mL); MFC (Aspergillus niger [22]): 30 µM (≈ 9.01 µg/mL); MFC (Trichoderma viride [23]): 60 µM (≈ 18 µg/mL); MFC (Talaromyces funiculosus [24]): 60 µM (≈ 18 µg/mL); MFC (Penicillium ochrochloron [25]): 60 µM (≈ 18 µg/mL); MFC (Penicillium cyclopium [26]): 60 µM (≈ 18 µg/mL) |
